{"source": "patent US20260076937A1", "about": "“COMPOSITION FOR PREVENTING OR TREATING AUTOIMMUNE DISEASES COMPRISING A BCAT1 INHIBITOR” (Seoul National University R&DB Foundation, priority 2024, published 2026)", "key": {"[1]": {"test_system": "human CD4+ naive and memory T cells", "test": "CFSE dilution proliferation assay", "format": "cell-based", "conditions": "anti-CD3/CD28 microbeads; Bi2 10 μM, JPH203 10 μM, LβhL 400 mg/L", "protocol": "(§1) To analyze T cell proliferative capacity, purified isolated human CD4+ T cells were labeled with 1 μM carboxyfluorescein succinimidyl ester (CFSE; Invitrogen, Waltham, MA, USA) and then stimulated with anti-CD3/CD28 antibody coated microbeads for 4 days at 37° C. Cells were stained with 7AAD (BD Biosciences) for 10 minutes to distinguish dead cells and the extent of CFSE dilution in 7AAD-cells was measured by BD LSRFortessa to analyze proliferative capacity. Antibodies listed in Table 2 and previously known BD LSRFortessa cell analyzers were used."}, "[2]": {"test_system": "TCR-stimulated human CD4+ naive T cells", "test": "Cytokine ELISA of culture supernatants, CD4+ naive T cells", "format": "cell-based", "conditions": "TCR stimulation 3 days"}, "[3]": {"test_system": "HIF-1α", "test": "HIF-1α immunoblot in TCR-stimulated CD4+ memory T cells", "format": "cell-based, human", "conditions": "TCR-stimulated CD4+ memory T cells; Bi2 10 μM, CoCl2 100 μM, VH298 100 μM, MG132 5 μM", "protocol": "(§2) Cells were cultured in radioimmunoprecipitation assay (RIPA) buffer (150 mM NaCl, 10 mM Na2HPO4, pH 7.2, 1% Nonidet P-40, 0.5% deoxycholate) containing phenylmethylsulfonyl fluoride (PMSF; Millipore Sigma, Burlington, MA), EDTA, protease and phosphatase inhibitor cocktail (Thermo Fisher Scientific) to extract total protein. Proteins were separated on 8-10% SDS-polyacrylamide gels and blotted onto polyvinylidene difluoride (PVDF) membranes (Bio-Rad, Hercules, CA) followed by 5% BSA in Tris buffered saline (TBS) with 0.1% Tween 20 and blocked for 1 hour. Membranes were cultured overnight with anti-human SLC7A5, anti-BCAT, anti-phospho-p70S6K, anti-p70S6K, anti-HIF-1α (all provided by Cell Signaling Technology, Danvers, MA) primary antibodies at 4° C., followed by culture with HRP-conjugated secondary antibodies for 1 hour at room temperature. Membranes were developed using SuperSignal West Femto Maximum Sensitivity Substrate or SuperSignal West Pico PLUS Chemiluminescent Substrate system (Thermo Fisher Scientific)."}, "[4]": {"test_system": "mTORC1", "test": "Phospho-p70-S6K immunoblot (mTORC1 activity) in CD4+ memory T cells", "format": "cell-based, human", "conditions": "about 1-2 hours after stimulation", "protocol": "as §2"}, "[5]": {"test_system": "human CD4+ naive T cells", "test": "Cell viability by 7-AAD staining", "format": "cell-based", "conditions": "Bi2 10 μM, 4 days", "protocol": "as §1"}, "[6]": {"test_system": "human CD4+ naive T cells", "test": "Th17 polarization of human CD4+ naive T cells (RT-qPCR, ELISA)", "format": "cell-based", "conditions": "Th17-polarized conditions, 7 days, Bi2 10 μM", "protocol": "BCAT1 regulates HIF-1α through mTORC1 activation in human CD4^+ T cells. FIG. 11A relates to ubiquitin-proteasome degradation of HIF1a and inhibitors for each step. In FIG. 11B, CD4+ memory T cells were pretreated with Bi2 (10 μM), CoCl2 (100 μM), VH298 (100 μM) or MG132 (5 μM) for 1 hour and stimulated with anti-CD3/CD28 coated microbeads for 8 hours. Cell lysates were immunoblotted against HIF-1α (n=3 independent experiments). In FIG. 11C, CD4+ memory T cells were stimulated for 24 hours and then treated with CHX (0.2 μg/ml) for the specified time before being obtained. Cell lysates were immunoblotted against HIF-1α (n=3 independent experiments). In FIG. 11D, CD4^+ memory T cells were stimulated for a specified time with or without Bi2 (10 μM). […] Cell viability was analyzed by 7-AAD staining using a flow cytometer (n=3). […] The mRNA levels of genes involved in leucine metabolism were quantified using RT-qPCR (n=3). […] The mRNA expression of the signature genes of Th17 (i-j) or Th1 (k-l) and cytokines was measured by RT-qPCR and ELISA, respectively (n=5-7). […]\nTotal RNA was prepared using TRIzol reagent (Life Technologies, Grand Island, NY), followed by cDNA synthesis (Promega, Madison, WI), followed by real-time quantitative RT-PCR with a CFX system (Bio-Rad, Hercules, CA) using SensiFAST SYBR® Lo-ROX (Bioline, London. UK). […]"}}, "data": [{"compound": "O=C(NNS(=O)(=O)c1ccccc1C(F)(F)F)c1cc2cc(Cl)ccc2o1", "note": "[Bi2, BCATc inhibitor 2]", "values": [{"measurement": "proliferation (CFSE dilution)", "setting": "[1]", "value": "no effect on proliferation"}, {"measurement": "IL-2 production by CD4+ naive T cells", "setting": "[2]", "value": "not affected"}, {"measurement": "HIF-1α protein expression", "setting": "[3]", "value": "significantly inhibited"}, {"measurement": "S6K phosphorylation", "setting": "[4]", "value": "inhibitory effect"}, {"measurement": "viability of activated CD4+ naive T cells", "setting": "[5]", "value": "no significant effect"}, {"measurement": "IL-17A secretion", "setting": "[6]", "value": "decreased"}, {"measurement": "mRNA levels of RORC and IL17A", "setting": "[6]", "value": "significantly reduced"}]}]}
